Values of other authors as cited in PMC6332596 (Journal of Hematology & Oncology, 2019).

Set-up: method as in PMID 25933833, PMID 21131552
Settings: compared with chiauranib; cited from earlier work

Structure (SMILES)	DLTs in phase I trials
Nc1ncc(-c2cnn(CCO)c2)c2scc(-c3ccc(NC(=O)Nc4cccc(F)c4)cc3)c12 [Ilorasertib]	more DLTs, such as pancreatic disease and hypertension, fatigue, cholecystitis, and QTc prolonged
Cc1cc(Nc2cc(N3CCN(C)CC3)nc(/C=C/c3ccccc3)n2)n[nH]1 [ENMD-2076]	more DLTs, such as pancreatic disease and hypertension, fatigue, cholecystitis, and QTc prolonged
